Assay results published in patent US20100093863A1, “USE OF CITRULLINE FOR PREVENTING AN INCREASE IN PROTEIN CARBONYLATION AND FOR TREATING DISEASES RESULTING THEREFROM” (UNIVERSITE PARIS DESCARTESURE, priority 2007, published 2010).

Columns and labels:
[1] = system: carbonylation of muscle proteins; test: Carbonylation of muscle proteins (DNPH assay, tibialis anterior) in malnourished-renourished rats; assay type: in vivo, Sprague-Dawley rats; settings: rats aged 19 months, 12 weeks restricted diet, renourished one week with diet enriched with citrulline (5 g/kg/d); FIG. 1 column 4 versus column 3
Procedure: (§1) Male Sprague-Dawley rats (Charles River Laboratoires, L'Arbresles, France) aged 19 months are placed in individual cages in a thermostatically-controlled atmosphere (23°±1° C.) and subjected to a 12-h light-darkness cycle (darkness from 8 h to 20 h). The manager of the programme is authorized (no. 75.522) by the Ministry of Agriculture and Forestry to carry out this type of experiment. Moreover, the use and the treatment of the laboratory animals comply with legislation (D2001-486) and are in accordance with European legislation (Official Journal of the European Community L358 Dec. 18, 1986).
(§2) The rats are acclimatized for 2 weeks during which spontaneous food consumption is measured. […]
The processes of oxidation of the proteins affecting the structure of the amino acids which comprise them are complex and all give rise to the formation of carbonyl groups. For this reason it was decided to carry out an overall evaluation of the oxidation of the muscle proteins by quantifying the carbonylated derivatives from a sample of 300 mg of tibialis anterior. […] The solubilized proteins are separated into two equal fractions in order to have two cups containing the same quantity of proteins (1-1.5 mg/ml). One of the cups serves as a blank and the other to quantify the carbonyl groups. […]

[2] = system: carbonylation of the cerebral proteins; test: Carbonylation of cerebral proteins (DNPH assay, brain) in elderly rats; assay type: in vivo, Sprague-Dawley rats
Procedure: as §1, with “Laboratoires, L′Arbresles,” for “Laboratoires, L'Arbresles,”, “aged 25” for “aged 19”, “(23°±1° C.),” for “(23°±1° C.)”, “a 12-hour” for “a 12-h”
as §2
AANE group (n=4): the animals receive a standard diet rendered isonitrogenous compared with that of the CIT group by the addition of non-essential amino acids (alanine, asparagine, glycine, serine, histidine, and proline in equimolar quantities) for 1 month. […]
The processes of oxidation of the proteins affecting the structure of the amino acids which comprise them are complex and all give rise to the formation of carbonyl groups. For this reason it was decided to carry out an overall evaluation of the oxidation of the muscle proteins by quantifying the carbonylated derivatives from a sample of 1 g of brain. […] One of the cups serves as a blank and the other to quantify the carbonyl groups. […]

## NC(=O)NCCCC(N)C(=O)O (stereo not drawn) [citrulline, 2-amino-5-(carbamoylamino)pentanoic acid]
[1]
  increase in the carbonylation of muscle proteins accompanying malnutrition-renutrition: this phenomenon disappears completely
[2]; brain of rats aged 25 months, enriched standard diet for 1 month (CIT 1 g/kg/d; AANE isonitrogenous), Average ± ASD
  Carbonylated proteins: 164 ± 12 µmol/g
[2]; elderly healthy rats, diet enriched with CIT (1 g/kg/d, 1 month) versus AANE group
  decrease in the carbonylation of the cerebral proteins: ~10%
